Assay results: PubChem BioAssay (NCI)
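Test compounds were applied to cells in 96-well plates for 48 hours at 5 doses. GI50 marks 50% less growth. The concentration for full growth arrest is given as TGI.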

Experiments:
Assay in all cases: NCI tumour cell line growth inhibition, 48 h
[1] = system: TK-10 renal
[2] = system: IGROV1 ovarian
[3] = system: MDA-MB-231 breast
[4] = system: SW-620 colon
[5] = system: HL-60(TB) leukemia
[6] = system: SF-268 CNS
[7] = system: COLO 205 colon
[8] = system: NCI-H460 lung
[9] = system: CCRF-CEM leukemia
[10] = system: SF-295 CNS
[11] = system: UACC-257 melanoma
[12] = system: SNB-19 CNS
[13] = system: 786-0 renal
[14] = system: SK-MEL-5 melanoma
[15] = system: SR leukemia
[16] = system: SNB-75 CNS
[17] = system: NCI-H23 lung
[18] = system: HOP-62 NSCLC
[19] = system: MOLT-4 leukemia
[20] = system: BT-549 breast
[21] = system: UO-31 renal
[22] = system: MALME-3M melanoma
[23] = system: NCI/ADR-RES ovarian
[24] = system: OVCAR-3 ovarian
[25] = system: MCF7 breast
[26] = system: K-562 leukemia
[27] = system: OVCAR-4 ovarian
[28] = system: HOP-92 NSCLC
[29] = system: UACC-62 melanoma
[30] = system: NCI-H226 lung
[31] = system: DU-145 prostate
[32] = system: RPMI-8226 leukemia
[33] = system: LOX IMVI melanoma
[34] = system: A549 NSCLC
[35] = system: SK-MEL-28 melanoma
[36] = system: HCT-15 colon
[37] = system: SF-539 CNS
[38] = system: PC-3 prostate
[39] = system: EKVX NSCLC
[40] = system: HS 578T breast
[41] = system: ACHN renal
[42] = system: OVCAR-5 ovarian
[43] = system: HT29 colon
[44] = system: SK-OV-3 ovarian
[45] = system: KM12 colon
[46] = system: NCI-H522 lung
[47] = system: HCC-2998 colon
[48] = system: U251 CNS
[49] = system: M14 melanoma
[50] = system: T-47D breast
[51] = system: CAKI-1 renal
[52] = system: HCT-116 colon
[53] = system: SN12C renal
[54] = system: A498 renal
[55] = system: MDA-MB-435
[56] = system: OVCAR-8 ovarian
[57] = system: SK-MEL-2 melanoma

In the case of `CN1CCN(c2ccc(Nc3nc(NCCCNS(=O)(=O)c4ccc(Cl)cc4)c4sccc4n3)cc2)CC1`, the GI50 [1] is reported as 19.6 µM, the TGI [1] is reported as 35.7 µM and the GI50 [2] is reported as 10.7 µM. For the same compound, the TGI [2] was 22.8 µM, the GI50 [3] was 4.94 µM and the TGI [3] was 17.3 µM. It also gave a GI50 [4] of 5.2 µM, a TGI [4] of 18.6 µM and a GI50 [5] of 2.12 µM. It also gave a TGI [5] of 5.11 µM, a GI50 [6] of 11.5 µM and a TGI [6] of 34.9 µM. It also gave a GI50 [7] of 15.6 µM, a TGI [7] of 37.8 µM and a GI50 [8] of 8.01 µM. It also gave a TGI [8] of 22 µM, a GI50 [9] of 4.22 µM and a TGI [9] greater than 100 µM. The GI50 [10] was 12.2 µM, the TGI [10] was 27 µM and the GI50 [11] was 2.39 µM. The TGI [11] was 6.44 µM, the GI50 [12] was 10.6 µM and the TGI [12] was 22.4 µM. For the same compound, the GI50 [13] was 2.12 µM, the TGI [13] was 6.29 µM and the GI50 [14] was 10.2 µM. For the same compound, the TGI [14] was 22 µM, the GI50 [15] was 2.83 µM and the TGI [15] was greater than 100 µM. For the same compound, the GI50 [16] was 13.5 µM, the TGI [16] was 26.5 µM and the GI50 [17] was 14.1 µM. It also gave a TGI [17] of 29.1 µM, a GI50 [18] of 19.6 µM and a TGI [18] of 37 µM. For the same compound, the GI50 [19] was 3.58 µM, the TGI [19] was 33.4 µM and the GI50 [20] was 3.12 µM. It also gave a TGI [20] of 14.4 µM, a GI50 [21] of 13 µM and a TGI [21] of 25.7 µM. For the same compound, the GI50 [22] was 2.12 µM, the TGI [22] was 3.91 µM and the GI50 [23] was 19.4 µM. For the same compound, the TGI [23] was 58.3 µM, the GI50 [24] was 6.81 µM and the TGI [24] was 35.9 µM. The GI50 [25] was 6.47 µM, the TGI [25] was 21.1 µM and the GI50 [26] was 2.95 µM. It also gave a TGI [26] greater than 100 µM, a GI50 [27] of 12.2 µM and a TGI [27] of 25.1 µM. It also gave a GI50 [28] of 2.16 µM, a TGI [28] of 16.2 µM and a GI50 [29] of 3 µM. For the same compound, the TGI [29] was 11.1 µM, the GI50 [30] was 12 µM and the TGI [30] was 24.9 µM. The GI50 [31] was 14 µM, the TGI [31] was 28.9 µM and the GI50 [32] was 3.04 µM. For the same compound, the TGI [32] was 9.67 µM, the GI50 [33] was 1.69 µM and the TGI [33] was 3.48 µM. It also gave a GI50 [34] of 18.7 µM, a TGI [34] of 61.7 µM and a GI50 [35] of 2.38 µM. It also gave a TGI [35] of 6.22 µM, a GI50 [36] of 3.08 µM and a TGI [36] of 12.4 µM. It also gave a GI50 [37] of 1.82 µM, a TGI [37] of 3.55 µM and a GI50 [38] of 9.62 µM. It also gave a TGI [38] of 26.4 µM, a GI50 [39] of 14.1 µM and a TGI [39] of 30 µM. It also gave a GI50 [40] of 13.8 µM, a TGI [40] of 44.7 µM and a GI50 [41] of 11.2 µM. For the same compound, the TGI [41] was 23.2 µM, the GI50 [42] was 13.3 µM and the TGI [42] was 27.4 µM. It also gave a GI50 [43] of 3.75 µM, a TGI [43] of 19.4 µM and a GI50 [44] of 29 µM. For the same compound, the TGI [44] was 60.9 µM, the GI50 [45] was 16.4 µM and the TGI [45] was 51.1 µM. It also gave a GI50 [46] of 11.8 µM, a TGI [46] of 27 µM and a GI50 [47] of 7.31 µM. For the same compound, the TGI [47] was 20 µM, the GI50 [48] was 4.06 µM and the TGI [48] was 23.2 µM. The GI50 [49] was 2 µM, the TGI [49] was 3.94 µM and the GI50 [50] was 22.1 µM. For the same compound, the TGI [50] was 54.1 µM, the GI50 [51] was 15.5 µM and the TGI [51] was 28.8 µM. For the same compound, the GI50 [52] was 2.3 µM, the TGI [52] was 6.99 µM and the GI50 [53] was 12.9 µM. The TGI [53] was 25.5 µM, the GI50 [54] was 20.4 µM and the TGI [54] was 34.8 µM. It also gave a GI50 [55] of 9.17 µM, a TGI [55] of 21.2 µM and a GI50 [56] of 8.57 µM. The TGI [56] was 53.8 µM, the GI50 [57] was 17.2 µM and the TGI [57] was 33.1 µM.
